Experimental data reported in ChEMBL document CHEMBL3301361, “Experimental in vitro DMPK and physicochemical data on a set of publicly disclosed compounds”.
≈ marks a conversion by molar mass, not a printed value.

Legend:
physchem [1] = conditions: octan-1-ol/water
in vitro [2] = conditions: human, plasma
in vitro [3] = conditions: human
in vitro [4] = conditions: SD, HW or BN, rat, plasma
physchem [5] = conditions: pH 7.4 buffer

| SMILES | fraction unbound at 5 h (in vitro [2]; PPB) | microsomal CLint (in vitro [3]; liver microsomes) | fraction unbound at 5 h (in vitro [4]) | also measured |
| --- | --- | --- | --- | --- |
| N#CN=C(N)c1sc(Nc2ccccc2)nc1N | 0.103 | < 3 µL/min/mg | – | logD (physchem [1]; pH 7.4, LogD7.4): 2.91 |
| CN(Cc1ccc(-c2ccccc2S(N)(=O)=O)cc1)C(=O)[C@@H]1CCC[C@H]1C(=O)NCc1ccc(OC(F)(F)F)cc1 | – | – | 0.003 | – |
| O=C(NCC12CC3CC(CC(C3)C1)C2)c1cc(N2CCNCC2)ccc1Cl | – | – | – | logD (physchem [1]; pH 7.4): 1.77; solubility thermodynamic (physchem [5]): 224 µM (≈ 86.9 µg/mL); fraction unbound at 5 h (in vitro [2]): 0.0268; microsomal CLint (in vitro [3]; microsomes): 11 µL/min/mg |
| O=C(NCc1ccccc1Cl)c1cccnc1Oc1ccccc1 | 0.134 | 36 µL/min/mg | – | logD (physchem [1]; pH 7.4, LogD7.4): 3.68 |
| O=C(NCc1ccc(OC(F)(F)F)cc1)C1c2ccccc2C(=O)N1CCc1ncccn1 (stereo not drawn) | – | – | 0.129 | – |
| NCCCCN(Cc1nc2ccccc2[nH]1)[C@H]1CCCc2cccnc21 [MAVORIXAFOR] | – | – | 0.244 | – |
| Cc1noc(C)c1-c1ccc(CNS(=O)(=O)c2c(C)noc2C)cc1 | 0.0752 | – | – | microsomal CLint (in vitro [3]; microsomes): 60.3 µL/min/mg |
| C[C@H](Nc1nc(Nc2cc(C3CC3)[nH]n2)c(F)cc1C#N)c1ccc(F)cc1 | – | – | 0.002 | – |
| COc1cc2c(cc1OC)CN(CCc1ccc(NC(=O)c3cccc4c(=O)c5cccc(OC)c5[nH]c34)cc1)CC2 | – | – | 0.0179 | – |
| CC(C)Oc1cc(-n2cnc3ccc(N[C@@H](C)c4ccc(F)cn4)nc32)n[nH]1 | 0.0581 | – | – | microsomal CLint (in vitro [3]; microsomes): > 150 µL/min/mg |
| O=C(Nc1ccccc1)Nc1nc(-c2ccccc2)cs1 | – | – | 0.0005 | – |
| N=C(N)c1cc2c(-c3ccccc3)cccc2s1 | 0.101 | 5 µL/min/mg | – | logD (physchem [1]; pH 7.4, LogD7.4): 1.27 |
| O=c1[nH]c2ccccc2n1C1CCN(CCCC(c2ccc(F)cc2)c2ccc(F)cc2)CC1 [PIMOZIDE] | – | – | 0.003 | – |
| Cc1ccc2c(c1)c(Sc1cccc(Cl)c1)c(C)n2CC(=O)O | 0.0036 | 12 µL/min/mg | – | – |
| O=C(O)CSCC(=O)Nc1nc(-c2ccccc2)cs1 | 0.0097 | 17.8 µL/min/mg | – | – |
| Cc1ncc(-c2cccc3c2C[C@H](NC(=O)c2ccc(OCC(F)(F)F)nc2)CO3)cn1 | – | – | 0.0768 | – |
| O=C(NS(=O)(=O)c1ccccc1Cl)N1CCC(N2CCC(Oc3ccc(Cl)c(Cl)c3)CC2)CC1 | 0.0307 | < 3 µL/min/mg | – | – |
| CCNC(=O)Nc1sc2ccccc2c1C(=O)N1CCC(N2CCCC3(CCN(CC)C3=O)C2)CC1 (stereo not drawn) | – | – | 0.17 | – |
| Cc1cc(Nc2cncc(N[C@@H](C)c3ncc(F)cn3)n2)n[nH]1 | 0.0854 | 15.8 µL/min/mg | – | – |

| SMILES | fraction unbound at 5 h (in vitro [2]; PPB) | microsomal CLint (in vitro [3]; liver microsomes) | fraction unbound at 5 h (in vitro [4]) | also measured |
| --- | --- | --- | --- | --- |
| COc1ccccc1OCC(O)CN1CCN(CC(=O)Nc2c(C)cccc2C)CC1 (stereo not drawn) [RANOLAZINE] | – | – | 0.465 | – |
| CNCCC(Oc1ccccc1OC)c1ccccc1 (stereo not drawn) [NISOXETINE] | 0.483 | < 3 µL/min/mg | – | logD (physchem [1]; pH 7.4, LogD7.4): 0.22 |
| OCC(CO)Nc1nc(SCc2cccc(F)c2F)nc2nc(NC3CC3)sc12 | 0.051 | 46 µL/min/mg | – | logD (physchem [1]; pH 7.4, LogD7.4): 3.11 |
| C[C@H](CO)Nc1nc(SCc2ccco2)nc2nc(N)sc12 | 0.117 | 5 µL/min/mg | – | – |
| Cc1c(S(=O)(=O)c2ccc(Cl)cc2)c2cc(F)ccc2n1CC(=O)O | 0.0043 | < 3 µL/min/mg | – | logD (physchem [1]; pH 7.4, LogD7.4): -0.16 |
| CC(C)C[C@H](CN)CC(=O)O [PREGABALIN] | – | – | 0.5 | – |
| CC(=O)Nc1cccc2c1c(S(=O)(=O)c1ccc(Cl)cc1)c(C)n2CC(=O)O | 0.0428 | < 3 µL/min/mg | – | – |
| O=C(NCC1CCC1)c1nc(OCCOCCO)ccc1NC(=O)c1ccnc2ccccc12 | – | – | 0.03 | – |
| COc1ccc(-c2nc(-c3ccccn3)no2)cc1 | – | – | 0.0544 | – |
| CCc1nc2c(N)nc3ccccc3c2n1CC(C)C | 0.117 | < 3 µL/min/mg | – | – |
| Fc1ccc(-c2cc(C(F)(F)F)nc(-n3cc(Cl)cn3)n2)cc1 | – | – | 0.0048 | – |
| CC(C)(C)OC(=O)NC[C@H]1CC[C@H](CNC(=O)c2cc(-c3cccc(CN)c3)nc3ccccc23)CC1 | – | – | 0.0171 | – |
| CCOc1ccc2oc(C(=O)NC(CCSC)c3nc4ccccc4[nH]3)c(C)c2c1 (stereo not drawn) | – | – | 0.009 | – |
| CCOC(=O)Nc1cc2c(c(N)n1)N=C(c1ccccc1)CCN2 | 0.0544 | – | – | microsomal CLint (in vitro [3]; microsomes): 66.1 µL/min/mg |
| COc1ccc(NC(=O)c2ccnc3ccccc23)c(C(=O)NCC2CCC2)n1 | – | – | 0.0009 | – |
| O=C(Nc1cccc(Cl)c1)Nc1nnc(-c2ccncc2)s1 | – | – | 0.0046 | – |
| Cc1nccnc1-c1ccc(CC(=O)N[C@H](C)c2ccc(OCC(F)(F)F)cn2)cc1 | – | – | 0.17 | – |
| O=C(NCCc1ccc(Cl)cc1)c1cccnc1 | – | – | 0.0854 | – |
| O=[N+]([O-])c1ccc(-c2nc(-c3ccccc3)c(-c3ccccc3)[nH]2)cc1 | – | – | 0.0006 | – |
